Read-outs that look alike come from different tables or passages of the source.
Target: T1, NS3 Proteinase (Hepatitis C virus genotype 1b, UniProt P26663)
T1 construct: beschriebenen NS3 Proteinase-Assay bestimmt
Assay: NS3 proteinase assay (analogous to Taliani et al., Analytical Biochemistry 240 (1996) 60-67; evaluation with GraFit 4)
Type: biochemical
Text: Die IC50-Werte wurden analog zu dem in: M. Taliani et al., Analytical Biochemistry, 240 (1996) 60-67 beschriebenen NS3 Proteinase-Assay bestimmt. Die Auswertung erfolgte mit Hilfe des Programms "GraFit 4" der Firma Erithacus Software Ltd. (Staines, Middlesex, UK).

T1 sequence (P26663 1027-1657, other chains not shown): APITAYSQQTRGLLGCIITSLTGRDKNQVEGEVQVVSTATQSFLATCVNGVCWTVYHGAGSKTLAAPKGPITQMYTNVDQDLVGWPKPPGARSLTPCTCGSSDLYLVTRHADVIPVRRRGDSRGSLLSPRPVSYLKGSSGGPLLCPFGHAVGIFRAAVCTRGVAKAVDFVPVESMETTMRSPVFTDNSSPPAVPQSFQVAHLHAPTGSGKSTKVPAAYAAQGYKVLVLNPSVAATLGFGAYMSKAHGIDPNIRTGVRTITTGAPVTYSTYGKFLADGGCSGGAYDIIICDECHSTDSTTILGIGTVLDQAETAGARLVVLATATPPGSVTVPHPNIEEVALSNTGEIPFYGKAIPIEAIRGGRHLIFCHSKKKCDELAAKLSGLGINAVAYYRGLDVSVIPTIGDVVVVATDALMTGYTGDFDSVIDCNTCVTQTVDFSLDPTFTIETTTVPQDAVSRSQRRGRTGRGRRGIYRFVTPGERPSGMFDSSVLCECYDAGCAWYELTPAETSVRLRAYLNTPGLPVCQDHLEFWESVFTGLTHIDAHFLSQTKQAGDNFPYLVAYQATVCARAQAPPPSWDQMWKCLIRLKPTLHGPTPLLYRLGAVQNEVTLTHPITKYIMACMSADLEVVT

Structure (SMILES)	IC50 (read-out: IC50) [µM]	IC50 [µM]
CC1=CC(=O)c2ccccc2C1=O [Beispiel 1, Menadion]	45	–
O=C1C=CC(=O)c2ccccc21 [Beispiel 2, 1,4-Naphthochinon]	–	20
Nc1ccc(O)c2ncccc12 [Beispiel 5, 5-Amino-8-hydroxychinolin]	51	–

Continued, in another order:

IC50 (read-out: IC50) [µM]	Structure (SMILES)	IC50 [µM]
13	Nc1ccc(O)c2ccccc12 [Beispiel 3, 1-Amino-4-naphthol]	–
25	Oc1ccc(NCc2ccccc2)c2ccccc12 [Beispiel 4, 1-Benzylamino-4-naphthol]	–

Reference: patent publication EP1248603B1, “USE OF PARTICULAR COMPOUNDS FOR PROPHYLAXIS AND TREATMENT OF HEPATITIS C” (Morphochem AG, priority 2000, dated 2001)
